Assays:
GST-Bcl-2 = GST-Bcl-2 (Homo sapiens, UniProt P10415); assay: TR-FRET binding assay, GST-Bcl-2 with F-Bak peptide probe; conditions: TR-FRET Binding Affinity, GST-Bcl-2, F-Bak peptide probe
Method in brief: (§1)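 Ki was derived with Wang's equation for competitive binding of two ligands. The read-out was time-resolved fluorescence after a 3 h room-temperature incubation, using a Tb-labelled antibody donor and the F-Bak peptide acceptor (excitation 340/35 nm). Test compounds entered as DMSO serial dilutions starting at 50 μM, which was the 2× concentration.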

GST-Bcl-XL = GST-Bcl-XL (Homo sapiens, UniProt Q07817); assay: TR-FRET binding assay, GST-Bcl-XL with F-Bak peptide probe; conditions: TR-FRET Binding Affinity, GST-Bcl-XL, F-Bak peptide probe
GST-Bcl-XL, sequence (Q07817 whole entry): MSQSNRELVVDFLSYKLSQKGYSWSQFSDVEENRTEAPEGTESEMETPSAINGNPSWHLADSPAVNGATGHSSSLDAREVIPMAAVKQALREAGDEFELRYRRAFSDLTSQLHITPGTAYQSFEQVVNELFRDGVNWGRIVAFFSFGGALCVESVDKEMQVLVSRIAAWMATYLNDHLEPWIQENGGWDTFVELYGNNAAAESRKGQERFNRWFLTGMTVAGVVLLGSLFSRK
Method in brief: as §1

Canine platelets = assay: Platelet cell viability assay (platelet-rich plasma, Cell Titer Glo); format: cell-based; conditions: Canis lupus familiaris, 5 h, isolated canine platelets ex vivo, five hours at 37° C.
Method in brief: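 Isolated canine platelets were incubated ex vivo with a range of compound concentrations. After 20 min equilibration at room temperature, viability was measured by Cell Titer Glo luminescence.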

FL5.12/Bcl-2 cells = assay: FL5.12/Bcl-2 cell viability assay under IL-3 withdrawal (CellTitre Glo); format: cell-based, murine; conditions: Mus musculus, IL-3 withdrawn 48 hrs, then 24 hrs with compound
Method in brief: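 Murine IL-3-dependent FL5.12 cells stably overexpressing Bcl-2 were deprived of IL-3 (WEHI-3B conditioned medium omitted) for 48 hrs, then exposed to various compound concentrations for a further 24 hrs at 37° C, 5% CO2. Viability was read by CellTitre Glo luminescence.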

GST-Bcl-2, sequence (P10415 whole entry): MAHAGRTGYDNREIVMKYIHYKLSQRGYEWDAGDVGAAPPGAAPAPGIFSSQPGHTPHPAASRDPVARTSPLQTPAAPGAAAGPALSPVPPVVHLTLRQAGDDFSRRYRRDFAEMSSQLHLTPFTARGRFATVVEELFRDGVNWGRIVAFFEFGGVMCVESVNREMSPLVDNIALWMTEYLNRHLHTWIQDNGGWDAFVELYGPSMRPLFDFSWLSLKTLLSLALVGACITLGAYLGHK

SMILES | Ki (GST-Bcl-2) | Ki (GST-Bcl-XL) | EC50 (Canine platelets) | EC50 (FL5.12/Bcl-2 cells)
CN1CCC(CNc2ccc(S(=O)(=O)NC(=O)c3ccc(N4CCN(CC5=C(c6ccc(Cl)cc6)CC(C)(C)CC5)CC4)cc3Oc3cccc4[nH]ccc34)cc2[N+](=O)[O-])CC1 [Example 105, 4-(4-{[2-(4-chlorophenyl)-4,4-dimethylcyclohex-1-en-1-yl]methyl}piperazin-1-yl)-2-(1H-indol-4-yloxy)-N-[(4-{[(1-methylpiperidin-4-yl)methyl]amino}-3-nitrophenyl)sulfonyl]benzamide] | 0.08 nM | 5.02 nM | 30300 nM | 13 nM
CN1CCC(CNc2ccc(S(=O)(=O)NC(=O)c3ccc(N4CCN(CC5=C(c6ccc(Cl)cc6)CC(C)(C)CC5)CC4)cc3Oc3ccc4[nH]ccc4c3)cc2[N+](=O)[O-])(N(C)C)CC1 [Example 109, 4-(4-{[2-(4-chlorophenyl)-4,4-dimethylcyclohex-1-en-1-yl]methyl}piperazin-1-yl)-N-{[4-({[4-(dimethylamino)-1-methylpiperidin-4-yl]methyl}amino)-3-nitrophenyl]sulfonyl}-2-(1H-indol-5-yloxy)benzamide] | 0.161 nM | > 660 nM | > 50000 nM | 36 nM
CN(C)CCOc1ccc(-c2ccc(Cl)cc2)c(CN2CCN(c3ccc(C(=O)NS(=O)(=O)c4ccc(NCC5CCOCC5)c(S(=O)(=O)C(F)(F)F)c4)c(Oc4ccccc4)c3)CC2)c1 [Example 120, 4-[4-({4′-chloro-4-[2-(dimethylamino)ethoxy]-1,1′-biphenyl-2-yl}methyl)piperazin-1-yl]-2-phenoxy-N-({4-[(tetrahydro-2H-pyran-4-ylmethyl)amino]-3-[(trifluoromethyl)sulfonyl]phenyl}sulfonyl)benzamide] | 0.443 nM | 99.6 nM | > 50000 nM | 319 nM
CN(C)CCOc1ccc(-c2ccc(Cl)cc2)c(CN2CCN(c3ccc(C(=O)NS(=O)(=O)c4ccc(NCCCN5CCCC5)c([N+](=O)[O-])c4)c(Oc4ccccc4)c3)CC2)c1 [Example 121, 4-[4-({4′-chloro-4-[2-(dimethylamino)ethoxy]-1,1′-biphenyl-2-yl}methyl)piperazin-1-yl]-N-({3-nitro-4-[(3-pyrrolidin-1-ylpropyl)amino]phenyl}sulfonyl)-2-phenoxybenzamide] | 0.001 nM | 0.388 nM | 309 nM | 38 nM
CN(C)CCOc1cccc(-c2ccc(Cl)cc2)c1CN1CCN(c2ccc(C(=O)NS(=O)(=O)c3ccc(NCC4CCOCC4)c([N+](=O)[O-])c3)c(Oc3ccccc3)c2)CC1 [Example 122, 4-[4-({4′-chloro-3-[2-(dimethylamino)ethoxy]-1,1′-biphenyl-2-yl}methyl)piperazin-1-yl]-N-({3-nitro-4-[(tetrahydro-2H-pyran-4-ylmethyl)amino]phenyl}sulfonyl)-2-phenoxybenzamide] | 0.058 nM | 12.1 nM | > 50000 nM | 40 nM
CN(C)CCOc1cccc(-c2ccc(Cl)cc2)c1CN1CCN(c2ccc(C(=O)NS(=O)(=O)c3ccc(NCCCN4CCCC4)c([N+](=O)[O-])c3)c(Oc3ccccc3)c2)CC1 [Example 123, 4-[4-({4′-chloro-3-[2-(dimethylamino)ethoxy]-1,1′-biphenyl-2-yl}methyl)piperazin-1-yl]-N-({3-nitro-4-[(3-pyrrolidin-1-ylpropyl)amino]phenyl}sulfonyl)-2-phenoxybenzamide] | 0.015 nM | 1.37 nM | 2810 nM | 87 nM
CN(C)CCOc1ccc(-c2ccc(Cl)cc2)c(CN2CCN(c3ccc(C(=O)NS(=O)(=O)c4ccc(NCC5CCOCC5)c([N+](=O)[O-])c4)c(Oc4cccc5[nH]ccc45)c3)CC2)c1 [Example 125, 4-[4-({4′-chloro-4-[2-(dimethylamino)ethoxy]-1,1′-biphenyl-2-yl}methyl)piperazin-1-yl]-2-(1H-indol-4-yloxy)-N-({3-nitro-4-[(tetrahydro-2H-pyran-4-ylmethyl)amino]phenyl}sulfonyl)benzamide] | 0.003 nM | 11.6 nM | 44800 nM | 10 nM
CN(C)CCOc1ccc(-c2ccc(Cl)cc2)c(CN2CCN(c3ccc(C(=O)NS(=O)(=O)c4ccc(NCC5CCOCC5)c([N+](=O)[O-])c4)c(Oc4ccc5[nH]ccc5c4)c3)CC2)c1 [Example 126, 4-[4-({4′-chloro-4-[2-(dimethylamino)ethoxy]-1,1′-biphenyl-2-yl}methyl)piperazin-1-yl]-2-(1H-indol-5-yloxy)-N-({3-nitro-4-[(tetrahydro-2H-pyran-4-ylmethyl)amino]phenyl}sulfonyl)benzamide] | 0.012 nM | 163 nM | > 50000 nM | 31 nM
CN(C)CCOc1cccc(-c2ccc(Cl)cc2)c1CN1CCN(c2ccc(C(=O)NS(=O)(=O)c3ccc(NCC4CCOCC4)c([N+](=O)[O-])c3)c(Oc3cccc4[nH]ccc34)c2)CC1 [Example 128, 4-[4-({4′-chloro-3-[2-(dimethylamino)ethoxy]-1,1′-biphenyl-2-yl}methyl)piperazin-1-yl]-2-(1H-indol-4-yloxy)-N-({3-nitro-4-[(tetrahydro-2H-pyran-4-ylmethyl)amino]phenyl}sulfonyl)benzamide] | 0.051 nM | 363 nM | > 50000 nM | 25 nM
O=C(NS(=O)(=O)c1ccc(NCC2CCOCC2)c([N+](=O)[O-])c1)c1ccc(N2CCN(Cc3cc(OCCN4CCOCC4)ccc3-c3ccc(Cl)cc3)CC2)cc1Oc1cccc2[nH]ccc12 [Example 130, 4-(4-{[4′-chloro-4-(2-morpholin-4-ylethoxy)-1,1′-biphenyl-2-yl]methyl}piperazin-1-yl)-2-(1H-indol-4-yloxy)-N-({3-nitro-4-[(tetrahydro-2H-pyran-4-ylmethyl)amino]phenyl}sulfonyl)benzamide] | 0.14 nM | > 660 nM | > 50000 nM | 197 nM
O=C(NS(=O)(=O)c1ccc(NCC2CCOCC2)c([N+](=O)[O-])c1)c1ccc(N2CCN(Cc3c(OCCN4CCOCC4)cccc3-c3ccc(Cl)cc3)CC2)cc1Oc1cccc2[nH]ccc12 [Example 131, 4-(4-{[4′-chloro-3-(2-morpholin-4-ylethoxy)-1,1′-biphenyl-2-yl]methyl}piperazin-1-yl)-2-(1H-indol-4-yloxy)-N-({3-nitro-4-[(tetrahydro-2H-pyran-4-ylmethyl)amino]phenyl}sulfonyl)benzamide] | 0.106 nM | 243 nM | > 50000 nM | 31 nM
O=C(NS(=O)(=O)c1ccc(NCC2CCOCC2)c([N+](=O)[O-])c1)c1ccc(N2CCN(Cc3c(OCCN4CCOCC4)cccc3-c3ccc(Cl)cc3)CC2)cc1Oc1ccc2[nH]ccc2c1 [Example 132, 4-(4-{[4′-chloro-3-(2-morpholin-4-ylethoxy)-1,1′-biphenyl-2-yl]methyl}piperazin-1-yl)-2-(1H-indol-5-yloxy)-N-({3-nitro-4-[(tetrahydro-2H-pyran-4-ylmethyl)amino]phenyl}sulfonyl)benzamide] | 0.553 nM | 315 nM | > 50000 nM | 42 nM
CN(C)CCOc1ccc(-c2ccc(Cl)cc2)c(CN2CCN(c3ccc(C(=O)NS(=O)(=O)c4ccc(NC5CCN(C)CC5)c([N+](=O)[O-])c4)c(Oc4ccccc4)c3)CC2)c1 [Example 133, 4-[4-({4′-chloro-4-[2-(dimethylamino)ethoxy]-1,1′-biphenyl-2-yl}methyl)piperazin-1-yl]-N-({4-[(1-methylpiperidin-4-yl)amino]-3-nitrophenyl}sulfonyl)-2-phenoxybenzamide] | 0.009 nM | 0.281 nM | 95 nM | 20 nM
CN(C)CCOc1cccc(-c2ccc(Cl)cc2)c1CN1CCN(c2ccc(C(=O)NS(=O)(=O)c3ccc(NCCCN4CCCC4)c([N+](=O)[O-])c3)c(Oc3ccc4[nH]ccc4c3)c2)CC1 [Example 134, 4-[4-({4′-chloro-3-[2-(dimethylamino)ethoxy]-1,1′-biphenyl-2-yl}methyl)piperazin-1-yl]-2-(1H-indol-5-yloxy)-N-({3-nitro-4-[(3-pyrrolidin-1-ylpropyl)amino]phenyl}sulfonyl)benzamide] | 0.052 nM | 18 nM | 4720 nM | 48 nM
CN(C)CCOc1ccc(-c2ccc(Cl)cc2)c(CN2CCN(c3ccc(C(=O)NS(=O)(=O)c4ccc(NCCCN5CCCC5)c([N+](=O)[O-])c4)c(Oc4ccc5[nH]ccc5c4)c3)CC2)c1 [Example 135, 4-[4-({4′-chloro-4-[2-(dimethylamino)ethoxy]-1,1′-biphenyl-2-yl}methyl)piperazin-1-yl]-2-(1H-indol-5-yloxy)-N-({3-nitro-4-[(3-pyrrolidin-1-ylpropyl)amino]phenyl}sulfonyl)benzamide] | 0.008 nM | 6.24 nM | 4550 nM | 42 nM
O=C(NS(=O)(=O)c1ccc(NCCCN2CCCC2)c([N+](=O)[O-])c1)c1ccc(N2CCN(Cc3cc(OCCN4CCOCC4)ccc3-c3ccc(Cl)cc3)CC2)cc1Oc1ccc2[nH]ccc2c1 [Example 136, 4-(4-{[4′-chloro-4-(2-morpholin-4-ylethoxy)-1,1′-biphenyl-2-yl]methyl}piperazin-1-yl)-2-(1H-indol-5-yloxy)-N-({3-nitro-4-[(3-pyrrolidin-1-ylpropyl)amino]phenyl}sulfonyl)benzamide] | 0.259 nM | 61.9 nM | > 50000 nM | 190 nM
